Measurements from PubChem BioAssay AID248 (DTP/NCI, 2004).
Inconclusive results and toxic doses are left out.

Test system: L1210 leukemia ip in BDF1 mice, survival T/C
Assay: NCI In Vivo Anticancer Drug Screen. Data for tumor model L1210 Leukemia (intraperitoneal) in B6D2F1 (BDF1) mice
Conditions: endpoint: mean survival time, higher = longer survival
Method in brief: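 Tumor was transplanted into mice, which were then dosed with test compound or vehicle alone. Survival was recorded for each group, and the treated figure was expressed relative to the control figure.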

[1] = dose: 100.0 mg/kg/injection, schedule: Q04DX003 (ip), vehicle: saline with Tween-80
[2] = dose: 200.0 mg/kg/injection, schedule: Q04DX003 (ip), vehicle: saline with Tween-80
[3] = dose: 400.0 mg/kg/injection, schedule: Q04DX003 (ip), vehicle: saline with Tween-80
[4] = dose: 100.0 mg/kg/injection, schedule: Q01DX001 (ip), vehicle: saline
[5] = dose: 200.0 mg/kg/injection, schedule: Q01DX001 (ip), vehicle: saline
[6] = dose: 400.0 mg/kg/injection, schedule: Q01DX001 (ip), vehicle: saline
[7] = dose: 100.0 mg/kg/injection, schedule: Q04DX003 (ip), vehicle: saline
[8] = dose: 100.0 mg/kg/injection, schedule: Q01DX009 (ip), vehicle: saline with Tween-80
[9] = dose: 200.0 mg/kg/injection, schedule: Q01DX009 (ip), vehicle: saline with Tween-80
[10] = dose: 400.0 mg/kg/injection, schedule: Q01DX009 (ip), vehicle: saline with Tween-80
[11] = dose: 100.0 mg/kg/injection, schedule: Q01DX009 (ip), vehicle: Klucel (hydroxypropylcellulose) (HPC)
[12] = dose: 200.0 mg/kg/injection, schedule: Q01DX009 (ip), vehicle: Klucel (hydroxypropylcellulose) (HPC)
[13] = dose: 400.0 mg/kg/injection, schedule: Q01DX009 (ip), vehicle: Klucel (hydroxypropylcellulose) (HPC)
[14] = dose: 200.0 mg/kg/injection, schedule: Q01DX009 (ip), vehicle: saline
[15] = dose: 200.0 mg/kg/injection, schedule: Q04DX003 (ip), vehicle: saline
[16] = dose: 400.0 mg/kg/injection, schedule: Q04DX003 (ip), vehicle: saline
[17] = dose: 25.0 mg/kg/injection, schedule: Q04DX003 (ip), vehicle: saline
[18] = dose: 50.0 mg/kg/injection, schedule: Q04DX003 (ip), vehicle: saline
[19] = dose: 50.0 mg/kg/injection, schedule: Q01DX009 (ip), vehicle: saline
[20] = dose: 100.0 mg/kg/injection, schedule: Q01DX009 (ip), vehicle: saline

With `CCOC(=O)CN1C(=O)NC(C)(c2ccc(Cl)cc2)C1=O` (centres undefined) the T/C [1] was 106 % of control, the T/C [2] was 98 % of control and the T/C [3] was 96 % of control.

`CC1CC(C)OP(Oc2ccccc2)O1` (centres undefined) was tested, and the T/C [4] was 110 % of control, the T/C [5] was 96 % of control and the T/C [6] was 98 % of control.

In the case of `C1CCC2C(C1)NC1CCCCC12` (centres undefined), the T/C [7] is reported as 97 % of control.

With `CN(C)C=Nc1ccc(C#N)cc1` the T/C (dose: 100.0 mg/kg/injection, schedule: Q04DX002 (ip), vehicle: saline) was 98 % of control, the T/C (dose: 200.0 mg/kg/injection, schedule: Q04DX002 (ip), vehicle: saline) was 91 % of control and the T/C (dose: 400.0 mg/kg/injection, schedule: Q04DX002 (ip), vehicle: saline) was 91 % of control.

For `C=CC1CC1(C(=O)O)C(=O)O` (centres undefined), the T/C [8] was 93 % of control, the T/C [1] was 98 % of control and the T/C [9] was 96 % of control. For the same compound, the T/C [2] was 98 % of control, the T/C [10] was 90 % of control and the T/C [3] was 93 % of control.

In the case of `C#CC[As+](c1ccccc1)(c1ccccc1)c1ccccc1`, the T/C (dose: 6.25 mg/kg/injection, schedule: Q01DX009 (ip), vehicle: Klucel (hydroxypropylcellulose) (HPC)) is reported as 103 % of control and the T/C (dose: 12.5 mg/kg/injection, schedule: Q04DX003 (ip), vehicle: Klucel (hydroxypropylcellulose) (HPC)) is reported as 102 % of control.

In the case of `O=C(Nc1ccccc1)N(C1CCCCC1)C1CCCCC1`, the T/C [11] is reported as 86 % of control, the T/C [12] is reported as 88 % of control and the T/C [13] is reported as 89 % of control.

In the case of `FC(F)(F)COC(Br)CBr` (centres undefined), the T/C (dose: 15.0 mg/kg/injection, schedule: Q01DX001 (ip), vehicle: carboxymethylcellulose (CMC)) is reported as 101 % of control, the T/C (dose: 30.0 mg/kg/injection, schedule: Q01DX001 (ip), vehicle: carboxymethylcellulose (CMC)) is reported as 93 % of control and the T/C (dose: 60.0 mg/kg/injection, schedule: Q01DX001 (ip), vehicle: carboxymethylcellulose (CMC)) is reported as 95 % of control.

For `c1cc2[nH]c1C1(CCCC1)c1ccc([nH]1)C1(CCCC1)c1ccc([nH]1)C1(CCCC1)c1ccc([nH]1)C21CCCC1`, the T/C [4] was 102 % of control, the T/C [5] was 103 % of control and the T/C [6] was 94 % of control.

For `O=C(NO)c1cc(Br)cc(Br)c1O`, the T/C (dose: 25.0 mg/kg/injection, schedule: Q01DX009 (ip), vehicle: saline with Tween-80) was 98 % of control, the T/C (dose: 50.0 mg/kg/injection, schedule: Q01DX009 (ip), vehicle: saline with Tween-80) was 102 % of control and the T/C [8] was 100 % of control. The T/C (dose: 100.0 mg/kg/injection, schedule: Q04DX002 (ip), vehicle: saline with Tween-80) was 93 % of control, the T/C (dose: 200.0 mg/kg/injection, schedule: Q04DX002 (ip), vehicle: saline with Tween-80) was 97 % of control and the T/C (dose: 400.0 mg/kg/injection, schedule: Q04DX002 (ip), vehicle: saline with Tween-80) was 200 % of control.

`CN(C)N=Nc1c(Cl)cc(Cl)cc1C(N)=O` was tested, and the T/C (dose: 100.0 mg/kg/injection, schedule: Q01DX001 (ip), vehicle: saline with Tween-80) was 108 % of control, the T/C [8] was 111 % of control and the T/C [1] was 106 % of control. The T/C (dose: 133.0 mg/kg/injection, schedule: Q01DX009 (ip), vehicle: saline with Tween-80) was 123 % of control, the T/C (dose: 200.0 mg/kg/injection, schedule: Q01DX001 (ip), vehicle: saline with Tween-80) was 111 % of control and the T/C [9] was 165 % of control. For the same compound, the T/C [14] was 115 % of control, the T/C [2] was 110 % of control and the T/C (dose: 300.0 mg/kg/injection, schedule: Q01DX009 (ip), vehicle: saline with Tween-80) was 150 % of control. For the same compound, the T/C (dose: 300.0 mg/kg/injection, schedule: Q01DX009 (ip), vehicle: saline) was 100 % of control and the T/C (dose: 400.0 mg/kg/injection, schedule: Q01DX001 (ip), vehicle: saline with Tween-80) was 117 % of control.

For `CCNC(=O)Nc1ccc(C(=O)O)c(O)c1` (tested in a mixture with another compound), the T/C [1] was 97 % of control, the T/C (dose: 100.0 mg/kg/injection, schedule: Q04DX003 (sc), vehicle: olive oil, sesame oil, peanut oil) was 97 % of control and the T/C [2] was 92 % of control. For the same compound, the T/C (dose: 200.0 mg/kg/injection, schedule: Q04DX003 (sc), vehicle: olive oil, sesame oil, peanut oil) was 102 % of control, the T/C [3] was 102 % of control and the T/C (dose: 400.0 mg/kg/injection, schedule: Q04DX003 (sc), vehicle: olive oil, sesame oil, peanut oil) was 97 % of control.

`O=C1S/C(=C/c2ccccc2)C(=O)N1c1ccccc1` was tested, and the T/C (dose: 100.0 mg/kg/injection, schedule: Q01DX001 (ip), vehicle: Klucel (hydroxypropylcellulose) (HPC)) was 98 % of control, the T/C (dose: 200.0 mg/kg/injection, schedule: Q01DX001 (ip), vehicle: Klucel (hydroxypropylcellulose) (HPC)) was 90 % of control and the T/C (dose: 400.0 mg/kg/injection, schedule: Q01DX001 (ip), vehicle: Klucel (hydroxypropylcellulose) (HPC)) was 94 % of control.

With `Cc1ccc(C(=O)C(O)c2ccc(C)cc2)cc1` (centres undefined) the T/C [11] was 98 % of control, the T/C [12] was 101 % of control and the T/C [13] was 98 % of control.

With `CCOC(=O)COc1ccc(/C=C/c2ccnc3ccccc23)cc1` the T/C [11] was 100 % of control, the T/C [12] was 106 % of control and the T/C [13] was 94 % of control.

`OC(c1ccccc1)c1ccccc1` was tested, and the T/C [7] was 95 % of control, the T/C [15] was 100 % of control and the T/C [16] was 97 % of control.

With `Cc1ccc(S(=O)(=O)N(CC(=O)O)c2c[nH]c(C(=O)O)c2)cc1` the T/C (dose: 100.0 mg/kg/injection, schedule: Q01DX009 (ip), vehicle: acetone) was 92 % of control, the T/C (dose: 200.0 mg/kg/injection, schedule: Q01DX009 (ip), vehicle: acetone) was 95 % of control and the T/C (dose: 400.0 mg/kg/injection, schedule: Q01DX009 (ip), vehicle: acetone) was 88 % of control.

In the case of `O=C(Oc1ccc(S(=O)(=O)F)cc1Cl)c1ccc([N+](=O)[O-])cc1`, the T/C (dose: 100.0 mg/kg/injection, schedule: Q04DX002 (ip), vehicle: Klucel (hydroxypropylcellulose) (HPC)) is reported as 118 % of control, the T/C (dose: 200.0 mg/kg/injection, schedule: Q04DX002 (ip), vehicle: Klucel (hydroxypropylcellulose) (HPC)) is reported as 96 % of control and the T/C (dose: 400.0 mg/kg/injection, schedule: Q04DX002 (ip), vehicle: Klucel (hydroxypropylcellulose) (HPC)) is reported as 96 % of control.

For `CCOC(=O)Cn1c(=O)ssc1=O`, the T/C [17] was 100 % of control, the T/C [18] was 100 % of control and the T/C [7] was 100 % of control.

In the case of `CC(=O)OCC1CCCN1C(C)=O` (centres undefined), the T/C [19] is reported as 101 % of control, the T/C [20] is reported as 101 % of control and the T/C [14] is reported as 101 % of control.

With `CN(C)C1C2C(CS2(=O)=O)C1(C)C` (centres undefined) the T/C (dose: 75.0 mg/kg/injection, schedule: Q01DX001 (ip), vehicle: carboxymethylcellulose (CMC)) was 100 % of control and the T/C (dose: 150.0 mg/kg/injection, schedule: Q01DX001 (ip), vehicle: carboxymethylcellulose (CMC)) was 100 % of control.

With `O=C(Cn1cc(F)c(=O)[nH]c1=O)c1ccc(Cl)s1` the T/C [8] was 108 % of control, the T/C [1] was 100 % of control and the T/C [9] was 89 % of control. The T/C [2] was 97 % of control, the T/C [10] was 97 % of control and the T/C [3] was 102 % of control.

`CCCCCCCCC(CCCCCCCC)CC1CCC2CCCC21` (centres undefined) was tested, and the T/C (dose: 75.0 mg/kg/injection, schedule: Q01DX001 (ip), vehicle: saline with Tween-80) was 93 % of control, the T/C (dose: 150.0 mg/kg/injection, schedule: Q01DX001 (ip), vehicle: saline with Tween-80) was 90 % of control and the T/C (dose: 300.0 mg/kg/injection, schedule: Q01DX001 (ip), vehicle: saline with Tween-80) was 90 % of control.

With `COc1cc(C(=O)OC(C)CN2CCOCC2)cc(OC)c1OC` (centres undefined) the T/C (dose: 25.0 mg/kg/injection, schedule: Q01DX009 (ip), vehicle: saline) was 90 % of control, the T/C [17] was 95 % of control and the T/C [19] was 101 % of control. The T/C [18] was 109 % of control, the T/C [20] was 100 % of control and the T/C [7] was 101 % of control. For the same compound, the T/C [14] was 90 % of control, the T/C [15] was 101 % of control and the T/C [16] was 111 % of control.

In the case of `CC1=CC=CC(C)(C)CC1=O`, the T/C (dose: 100.0 mg/kg/injection, schedule: Q04DX003 (ip), vehicle: other) is reported as 102 % of control, the T/C (dose: 200.0 mg/kg/injection, schedule: Q04DX003 (ip), vehicle: other) is reported as 91 % of control and the T/C (dose: 400.0 mg/kg/injection, schedule: Q04DX003 (ip), vehicle: other) is reported as 95 % of control.

In the case of `CSc1cc(C)c(O)c(C)c1`, the T/C (dose: 100.0 mg/kg/injection, schedule: Q01DX009 (ip), vehicle: other) is reported as 98 % of control and the T/C (dose: 200.0 mg/kg/injection, schedule: Q01DX009 (ip), vehicle: other) is reported as 101 % of control.
